The source of these data is paper PMC10394516, “The pharmacokinetic profile of brensocatib and its effect on pharmacodynamic biomarkers including NE, PR3, and CatG in various rodent species” (Frontiers in Pharmacology, 2023).

Where two headings read alike, the source gives them in different places.

This data set in a line: Plasma PK of brensocatib, BID vs QD oral dosing, Wistar rats. It is filed as in vivo. The note with it: both sexes, rat; for half-life: Wistar, po; for AUC(0-t): first 24 h. The method, then:
A dose frequency study was performed in male and female mice (C57BL/6 & BALB/c) and in male and female rats (Sprague Dawley & Wistar) investigating twice daily (BID) versus once daily (QD) brensocatib administration.
Briefly, animals were weighed and randomized into different treatment groups. In total, three different dosing levels of brensocatib were tested in each species and strain; each QD dosing level was equivalent to 1.5-times the matching daily BID dose. For BID dosing, the second daily dose was administered 8-h post the morning dose. C57BL/6 mice were dosed either BID or QD for 7 consecutive days at 0/0, 0.5/0.75, 2/3, and 20/30 mg/kg/day (BID/QD). BALB/c mice were dosed for 7 consecutive days at 0/0, 0.2/0.3, 2/3, and 20/30 mg/kg/day (BID/QD). SD rats were dosed for 9 consecutive days at 0/0, 0.2/0.3, 2/3, and 20/30 mg/kg/day (BID/QD). Wistar rats were dosed for 7 consecutive days at 0/0, 0.2/0.3, 2/3, and 20/30 mg/kg/day (BID/QD).
For sparse PK analysis via LC-MS/MS, plasma was collected from animals during the first 24 h of dosing at prescribed timepoints. The timepoints included 1, 3, 8, and 24 h post initial dose for QD groups, and 1, 3, 8, 9, 11, and 24 h post initial dose for BID groups. Note that the 8- and 24-h plasma samples were prior to the afternoon dose for BID groups and prior to the second day dose for all groups, respectively. See section Quantification of Plasma Brensocatib Concentrations for details.
Blood was collected via the tail-vein technique and centrifuged to separate and collect the plasma. The resulting plasma samples were stored at −20°C or lower until LC-MS/MS analysis.
The plasma concentration of brensocatib was quantified by liquid chromatography, tandem mass spectrometry (LC-MS/MS), a Sciex API6500 mass spectrometer (SCIEX, Framingham, MA). Two brensocatib stock solutions were prepared, one for the preparation of the 8-point standard (STD) curve spiking solutions and the other for the preparation of the quantitative control spiking solutions (QCs) at three levels. The STD curve and QCs were prepared by 2% spiking from the spiking solutions into mouse or rat plasma. The samples were extracted using a protein precipitation method, where 10 µL of sample was mixed with 100 µL of internal standard working solution (100 ng/mL ^6C13-brensocatib in methanol), vortexed for 5 s, and centrifuged at 21,130 × g at 4°C for 15 min. The supernatant was mixed with an equal volume of water and 10 μL was injected into a Phenomenex Kinetex Biphenyl column (3.0 mm × 50 mm; 2.6 μm; 65°C; 0.8 mL/min) with an elution gradient consisting of mobile phase A (10 mM ammonium formate) and mobile phase B (methanol) over 2 min from 5% to 95% B. The mass spectrometer was equipped with an atmospheric-pressure chemical ionization source operating in positive mode.
Individual plasma concentrations were plotted and the area under the curve (AUC) was calculated using the trapezoid method. The elimination rate constant (k e ) was calculated as the negative natural log of the plasma concentration over time (Eq. 1) starting at the max concentration (C max) after the most recent dose to the last measurable plasma concentration between doses. The calculated k e was used to define the half-life (t 1/2 ) based on Eq. 2; where 0.693 is the natural log of 2 and assumes a first-order reaction. ke=−ln∆C/∆t (1) t1/2=0.693/ke (2)

On to `Cn1c(=O)oc2ccc(-c3ccc(C[C@@H](C#N)NC(=O)[C@@H]4CNCCCO4)cc3)cc21` [brensocatib], for which the half-life is, setting by setting: (0.2 mg/kg/day, oral BID, 0.2 mg/kg/day, evening dose, read-out: t1/2, PM dose (converted)) 387 ± 33 min; (0.2 mg/kg/day, oral BID, 0.2 mg/kg/day, morning dose, read-out: t1/2, AM dose (converted)) 329 ± 106 min; (0.3 mg/kg/day, oral QD, 0.3 mg/kg/day, read-out: t1/2, AM dose (converted)) 2060 ± 1220 min; (2 mg/kg/day, oral BID, 2 mg/kg/day, evening dose, read-out: t1/2, PM dose (converted)) 299 ± 19.8 min; (2 mg/kg/day, oral BID, 2 mg/kg/day, morning dose, read-out: t1/2, AM dose (converted)) 610 ± 88.2 min; (3 mg/kg/day, oral QD, 3 mg/kg/day, read-out: t1/2, AM dose (converted)) 308 ± 30 min. In addition, the half-life (20 mg/kg/day, oral BID, 20 mg/kg/day, evening dose, read-out: t1/2, PM dose (converted)) was 260 ± 9.6 min; the half-life (20 mg/kg/day, oral BID, 20 mg/kg/day, morning dose, read-out: t1/2, AM dose (converted)) is 469 ± 82.8 min; the half-life (30 mg/kg/day, oral QD, 30 mg/kg/day, read-out: t1/2, AM dose (converted)) was 265 ± 10.8 min. The AUC(0-t) was found to be 377 ± 78 ng·h/mL (oral BID, 0.2 mg/kg/day, read-out: AUC0–24h); 0.9 ± 0.18 µM·h (oral BID, 0.2 mg/kg/day, read-out: AUC(0–24)); 9820 ± 1820 ng·h/mL (oral BID, 2 mg/kg/day, read-out: AUC0–24h); 23.4 ± 4.32 µM·h (oral BID, 2 mg/kg/day, read-out: AUC(0–24)); 173000 ng·h/mL (oral BID, 20 mg/kg/day, read-out: AUC0–24h); 412 ± 89.6 µM·h (oral BID, 20 mg/kg/day, read-out: AUC(0–24)). For the same compound, the AUC(0-t) is 1040 ± 291 ng·h/mL (oral QD, 0.3 mg/kg/day, read-out: AUC0–24h); 2.46 ± 0.69 µM·h (oral QD, 0.3 mg/kg/day, read-out: AUC(0–24)); 11700 ng·h/mL (oral QD, 3 mg/kg/day, read-out: AUC0–24h); 27.9 ± 5.53 µM·h (oral QD, 3 mg/kg/day, read-out: AUC(0–24)); 266000 ng·h/mL (oral QD, 30 mg/kg/day, read-out: AUC0–24h); 634 ± 52.4 µM·h (oral QD, 30 mg/kg/day, read-out: AUC(0–24)).
